Experiments:
Assay type in all cases: cell-based
[1] = biological target: T1, Human RAR-related Orphan Receptor Gamma (RORγ) (Homo sapiens, UniProt P51449); experiment: RORγ assay (GAL4-RORγ hybrid luciferase reporter, Indigo Biosciences); conditions: inverse-agonist activity, GAL4-RORγ reporter cells, 23 hours
T1 sequence (P51449 269-508 limits assumed): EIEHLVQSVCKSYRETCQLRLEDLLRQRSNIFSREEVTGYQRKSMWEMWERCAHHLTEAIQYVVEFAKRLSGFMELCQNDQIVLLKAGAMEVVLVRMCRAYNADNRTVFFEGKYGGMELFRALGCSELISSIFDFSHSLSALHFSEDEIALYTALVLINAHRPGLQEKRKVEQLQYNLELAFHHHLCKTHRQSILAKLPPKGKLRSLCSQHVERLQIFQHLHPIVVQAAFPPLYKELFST
Text: B. RORγ Assay and Cell Viability
The RORγ assay system was purchased from Indigo Biosciences. This nuclear receptor assay utilizes a human cell line that has been engineered to express a hybrid form of the Human RAR-related Orphan Receptor Gamma (RORγ) at high levels. The N-terminal DNA binding domain (DBD) of the native RORγ receptor was substituted with the yeast GAL4-DBD to generate the GAL4-RORγ hybrid nuclear receptor. The reporter cell line is transfected with a plasmid that encodes the beetle luciferase gene under the control of the GAL4 upstream activating sequence (UAS). GAL4 binds to the UAS and increases transcription of downstream target genes. The GAL4-RORγ hybrid is constitutively active; therefore, the principle application of this reporter assay system is to screen test compounds to quantify inverse-agonist activities against human RORγ. Because the ligand binding domain (LBD) of RORγ is identical to the LBD of RORγt, this assay is an accurate surrogate for evaluating activity of experimental ligands against RORγt. To assess the RORγ inverse-agonist activity of the test compounds, reporter cells were plated in white 96-well plates in triplicate and were treated with DMSO (vehicle) or test compound (concentration ranges of 7.8-2000 nM) at 37° C. with 5% CO2 in a humidified atmosphere for 23 hours. After this incubation, luciferin was added to the wells and luciferase activity was determined by measuring the luminescence signal using a BMG Pherastar microplate reader. Viability was determined using the Live Cell Multiplex Assay (Indigo Biosciences). Values from test compound samples were normalized to those from DMSO-treated samples. Data were analyzed using GraphPad Prism version 6.00 for Windows (GraphPad Software, La Jolla Calif. USA). A non-linear regression analysis with log (inhibitor) vs. normalized response using a variable slope was applied to fit the data and determine the IC50 values for inhibition of RORγ and cell viability. Inhibition that is closely correlated with reduced viability is considered to be non-specific.

[2] = tested on: Nrf2 transcription factor; experiment: AREc32 luciferase reporter assay; conditions: Homo sapiens; AREc32 cells, 19 hours; concentration required to increase GST ARE luciferase reporter activity by 2-fold; read-out: NRF2 ARE 2-Fold (EC2×)
Text: A. AREc32 Luciferase Reporter Assay
The AREc32 luciferase reporter assay allows for quantitative assessment of the endogenous activity of the Nrt2 transcription factor in cultured mammalian cells. AREc32 cells are derived from MCF-7 human breast carcinoma cells that were stably transfected with a reporter construct that contains the firefly luciferase gene located downstream of eight copies of the rat GSTA2 antioxidant response element (ARE) sequence (Wang et al., 2006; Concept Life Sciences Integrated Discovery and Development Services Ltd (CLSIDDS)). Active Nrf2 binds to the ARE sequences and increases expression of the firefly luciferase gene. To assess the Nrf2-activating potential of the test compounds, AREc32 cells were plated in black […] plates at a density of 20,000 cells per well in triplicate in DMEM+10% FBS+0.8 mg/mL Geneticin and incubated at 37° C. with 5% CO2 in a humidified atmosphere. The next day, cells were treated with DMSO (vehicle) or test compound (concentration ranges of 0.4-200 nM or 3.9-2000 nM) for 19 hours. Luciferase activity was determined using the ONE-Glo Luciferase assay (Promega). The luminescence signal was measured on a BMG Pherastar microplate reader. The mean luminescence value from test compound-treated wells was normalized to that from DMSO-treated wells and was represented as fold-induction. Data were analyzed using GraphPad Prism version 6.00 for Windows, GraphPad Software, La Jolla Calif. USA. A non-linear regression curve with log (agonist) vs. response using a variable slope was used to fit the data. Where applicable, a maximum threshold value of 50-fold over DMSO was set. EC2× values were interpolated from the curve. EC2× corresponds to the concentration of test compound required to increase GST ARE Luciferase reporter activity by 2-fold.

IL-17A = experiment: IL-17 release from differentiated primary human T-cells (IL-17A HTRF assay); conditions: primary human CD4+ T cells differentiated into Th17 cells, 45-hour incubation, IL-17A in supernatant; read-out: hIL17 IC50
Method: C. IL-17 Release from Differentiated Primary Human T-Cells and Cell Viability
Primary human cryopreserved CD4+ T Cells (Lonza) were thawed according to the manufacturer's recommendations and plated either in Lymphocyte Growth Medium-3 (LGM-3) or X-VIVO 20 media (Lonza) in 96-well tissue culture plates at a density of ˜2×10^5 cells per well, and allowed to recover for approximately 4 hours at 37° C. with 5% CO2 in a humidified atmosphere. After the recovery step, DMSO (vehicle) or test compound at doses ranging from 2 to 500 nM or 4 to 1000 nM in a three-fold dilution series was added to the cells. Three replicate wells were tested for each treatment condition. Final DMSO concentration in each well was 0.1%. Immediately after treatment, CD4+ T cells were activated by adding Dynabeads Human T-Activator CD3/CD28 (Life Technologies; bead-to-cell ratio of 1:2.5) and differentiated into Th17 cells by adding a mixture of the following cytokines: transforming growth factor-β (TGF-β, 5 ng/mL), IL-6 (20 ng/mL), IL-23 (20 ng/mL), and IL-1β (10 ng/mL). Undifferentiated control cells received only cytokine IL-2 (50 ng/mL). All human recombinant cytokines were purchased from R&D Systems. Following a 45-hour incubation at 37° C. with 5% CO2 in a humidified atmosphere, the plates were centrifuged for 3 minutes at 250×g, and half of the supernatant was transferred to anew plate to be used in the IL-17A assay (see below). Cell viability was assessed in the original plate using the CyQuant Direct Assay (Life Technologies). CyQuant reagent (an amount equal to 10% of remaining media volume) was added to the wells, and the plates were then incubated at 37° C. for 75 min. Fluorescence was read on a SpectraMax M2e spectrophotometer at 480 nm (excitation) and 535 nm (emission) wavelengths. CyQuant values from test compound samples were normalized to those from DMSO-treated samples. The concentration of IL-17A in the supernatant was measured using the Homogeneous Time-Resolved Fluorescence (HTRF) assay (Cisbio Bioassays) according to the manufacturer's protocol. The assay was performed at room temperature in low volume, solid white 384-well plates (Greiner Bio-One). Samples and standards (serially-diluted human recombinant IL-17A (0 to 5,000 pg/mL concentration range; Cisbio Bioassays) were incubated with the anti-human IL-17A antibody conjugates (the HTRF donor and acceptor pair) for 16 hours and fluorescence was measured using a Pherastar FS microplate reader (BMG Labtech) in the HTRF mode (excitation at 337 nm and emission at 665 nm and 620 nm). IL-17A levels were assessed in duplicate aliquots of supernatant from each well resulting in a total of six readings per test condition. The 665 nm/620 nm signal ratio was calculated and the concentration of IL-17A in each sample was determined by interpolation from the standard curve. The amount of IL-17A from test compound treated samples were normalized to that of the vehicle-treated samples, set to 100%. Data were analyzed using GraphPad Prism (GraphPad Software, La Jolla California USA). Concentrations of test compound were transformed by taking the logarithm of each concentration used. The IC50 values for compound-mediated reduction in IL-17A levels and cell viability were determined by non-linear regression analysis using the log(inhibitor) vs. normalized response with variable slope equation. Inhibition that is closely correlated with reduced viability is considered to be non-specific.

Structure (SMILES) | IC50 [1] | EC (2-fold) [2] | IC50 (IL-17A)
C[C@H]1C(=O)C(C#N)=C[C@@]2(C)c3nn(C4CCCCC4)c(-c4ccccc4)c3CC[C@H]12 [T1] | 174 nM | 1.45 µM | 65 nM
C[C@H]1C(=O)C(C#N)=C[C@@]2(C)c3c(c(-c4ccccc4)nn3C3CCCCC3)CC[C@H]12 [T2] | 98 nM | 0.66 µM | 83 nM
C[C@H]1C(=O)C(C#N)=C[C@@]2(C)c3c(c(-c4ccccc4)nn3CC(F)(F)F)CC[C@H]12 [T3] | 276 nM | 1.46 µM | 92 nM
C[C@H]1C(=O)C(C#N)=C[C@@]2(C)c3nn(Cc4ccccc4)c(-c4ccccc4)c3CC[C@H]12 [T4] | 140 nM | 0.914 µM | 223 nM
C[C@H]1C(=O)C(C#N)=C[C@@]2(C)c3c(c(-c4ccccc4)nn3Cc3ccccc3)CC[C@H]12 [T5] | 136 nM | 0.587 µM | 119 nM
C[C@H]1C(=O)C(C#N)=C[C@@]2(C)c3c(c(-c4ccccc4)nn3-c3ccc(C(F)(F)F)cc3)CC[C@H]12 [T6] | 91 nM | 0.242 µM | 35 nM
C[C@H]1C(=O)C(C#N)=C[C@@]2(C)c3c(c(-c4ccccc4)nn3-c3ccncc3)CC[C@H]12 [T7] | 158 nM | 0.265 µM | 170 nM
C[C@H]1C(=O)C(C#N)=C[C@@]2(C)c3c(c(-c4ccccc4)nn3-c3ccnc4ccccc34)CC[C@H]12 [T8] | 81 nM | 0.426 µM | 73 nM
C[C@H]1C(=O)C(C#N)=C[C@@]2(C)c3c(c(-c4ccccc4)nn3-c3ccccc3F)CC[C@H]12 [T9] | 63 nM | 0.122 µM | 127 nM
C[C@H]1C(=O)C(C#N)=C[C@@]2(C)c3c(c(-c4ccccc4)nn3-c3ccc(Cl)c(Cl)c3)CC[C@H]12 [T10] | 88 nM | 0.26 µM | 78 nM
C[C@H]1C(=O)C(C#N)=C[C@@]2(C)c3c(c(-c4ccccc4)nn3-c3ccccc3)CC[C@H]12 [T11] | 73 nM | 0.107 µM | 111 nM
Cc1ccc(-n2nc(-c3ccccc3)c3c2[C@]2(C)C=C(C#N)C(=O)[C@H](C)[C@H]2CC3)cc1 [T12] | 55 nM | 0.135 µM | 76 nM
C[C@H]1C(=O)C(C#N)=C[C@@]2(C)c3c(c(-c4ccccc4)nn3-c3ccc(Cl)cc3)CC[C@H]12 [T13] | 129 nM | 0.274 µM | 96 nM
COc1ccc(-n2nc(-c3ccccc3)c3c2[C@]2(C)C=C(C#N)C(=O)[C@H](C)[C@H]2CC3)cc1 [T14] | 60 nM | 0.147 µM | 57 nM
Cc1ccccc1-n1nc(-c2ccccc2)c2c1[C@]1(C)C=C(C#N)C(=O)[C@H](C)[C@H]1CC2 [T17] | 77 nM | 0.105 µM | 94 nM
Cc1ccccc1-n1nc2c(c1-c1ccccc1)CC[C@@H]1[C@@H](C)C(=O)C(C#N)=C[C@@]21C [T18] | 114 nM | 0.741 µM | 182 nM
C[C@H]1C(=O)C(C#N)=C[C@@]2(C)c3c(c(-c4ccccc4)nn3-c3ccc(OC(F)(F)F)cc3)CC[C@H]12 [T19] | 85 nM | 0.247 µM | 32 nM
C[C@H]1C(=O)C(C#N)=C[C@@]2(C)c3nn(-c4ccc(OC(F)(F)F)cc4)c(-c4ccccc4)c3CC[C@H]12 [T20] | 115 nM | 0.927 µM | 94 nM
C[C@H]1C(=O)C(C#N)=C[C@@]2(C)c3c(c(-c4ccccc4)nn3C3CCS(=O)(=O)C3)CC[C@H]12 (some centres unmarked) [T29] | 470 nM | 0.837 µM | –
C[C@H]1C(=O)C(C#N)=C[C@@]2(C)c3nn(C4CCS(=O)(=O)C4)c(-c4ccccc4)c3CC[C@H]12 (some centres unmarked) [T30] | 143 nM | 0.462 µM | –
C[C@H]1C(=O)C(C#N)=C[C@@]2(C)c3c(c(-c4ccccc4)nn3-c3cccc(Br)c3)CC[C@H]12 [T33] | 89 nM | 0.29 µM | –
C[C@H]1C(=O)C(C#N)=C[C@@]2(C)c3c(c(-c4ccccc4)nn3-c3ccc(C(=O)O)cc3)CC[C@H]12 [T52] | > 2000 nM | > 2 µM | –
C[C@H]1C(=O)C(C#N)=C[C@@]2(C)c3c(c(-c4ccncn4)nn3-c3ccc(C4CC4)cn3)CC[C@H]12 [T62] | 284 nM | 0.691 µM | –
C[C@H]1C(=O)C(C#N)=C[C@@]2(C)c3nc(-c4ccccc4)n(-c4nnn(C)n4)c3CC[C@H]12 [T111] | 768 nM | 0.59 µM | –
C[C@H]1C(=O)C(C#N)=C[C@@]2(C)c3nc(-c4ccncc4)n(-c4ccccc4)c3CC[C@H]12 [T112] | 264 nM | 0.563 µM | –
